According to patent publication US20230127047A1, “SELECTIVE GIP RECEPTOR AGONISTS COMPRISING A CHELATING MOIETY FOR IMAGING AND THERAPY PURPOSES” (ANTAROS MEDICAL AB, priority 2020, published 2023):
Where a SMILES comes first, the peptide text is derived from it. [ ]: non-standard residue; d: D form. The star is where a group is joined. DOTA = O=C(O)CN1CCN(CC(=O)O)CCN(CC(=O)*)CCN(CC(=O)O)CC1; Aib = CC(C)(N)C(=O)O

Assays:
[1] = Chemical stability testing of peptides in solution (UHPLC); assay type: physicochemical; conditions: 0.5 mg/mL, pH 7.3 TRIS buffer
Protocol: For chemical stability testing, the target concentration was 0.5 mg/mL pure compound in a pH 7.3 TRIS buffer (50 mM) containing m-cresol (30 mM), sodium chloride (85 mM) and polysorbate 20 (8 μM). The solution was stored for 7 days at 4° C., or 40° C. After that time, the solution was analysed by UHPLC (Analytical UHPLC Method D).
The “% Purity” after 7 days is defined by the % Relative purity at day 7 in relation to the % Relative purity at t0 following the equation
% Purity=[(% Relative purity t7)×100)]/% Relative purity t0
The % Relative purity at t0 was calculated by dividing the peak area of the peptide at t0 by the sum of all peak areas at t0 following the equation
% Relative purity t0=[(peak area t0)×100]/sum of all peak areas t0
Likewise, the % relative purity t7 was calculated by dividing the peak are of the peptide at t7 by the sum of all peak areas at t7 following the equation
% Relative purity t7=[(peak area t7)×100]/sum of all peak areas t7
Chemical stability of peptidic compounds was assessed as described in Methods.

[2] = target: human GLP-1 receptor (hGLP-1R) (Homo sapiens, UniProt P43220); assay: cAMP response (HTRF) in PSC-HEK-293 cells expressing human GLP-1 receptor; assay type: cell-based
Protocol: (§1) Each vial contained 1.8 ml cells. The vials were slowly frozen to −80° C. in isopropanol, and then transferred in liquid nitrogen for storage.
(§2) Prior to their use, frozen cells were thawed quickly at 37° C. and washed (5 min at 900 rpm) with 20 ml cell buffer (lx HBSS; 20 mM HEPES, with 0.1% BSA).
(§3) For measurement of cAMP generation, 5 μl cells (final 5000 cells/well) and 5 μl of test compound were added to a 384-well plate, followed by incubation for 30 min at room temperature.
(§4) The cAMP generated was determined using a kit from Cisbio Corp. based on HTRF (Homogenous Time Resolved Fluorescence). The cAMP assay was performed according to manufacturer's instructions (Cisbio).
(§5) cAMP content of cells was determined using a kit from Cisbio Corp. (cat. no. 62AM4PEC) based on HTRF (Homogenous Time Resolved Fluorescence). […] Medium was then removed and cells washed with PBS lacking calcium and magnesium, followed by proteinase treatment with accutase (Sigma-Aldrich cat. no. A6964). Detached cells were washed and resuspended in assay buffer (1×HBSS; 20 mM HEPES, 0.1% BSA, 2 mM IBMX) and cellular density determined. They were then diluted to 400000 cells/ml and 25 μl-aliquots dispensed into the wells of 96-well plates. For measurement, 25 μl of test compound in assay buffer was added to the wells, followed by incubation for 30 minutes at room temperature.

[3] = physchem
Protocol: Depending on the presence of remaining material as judged by visual inspection the compounds were determined to be soluble at the target concentration in the respective buffer system.
Solubility buffer system A) 100 mM Phosphate buffer pH 7.4
Solubility buffer system B) Acetate buffer pH 4.5
Solubility buffer system C) 100 mM Histidine buffer pH 5.5
Solubility buffer system D) 10 mM Glycine pH 2.5
Solubility buffer system E) 10 mM Glycine pH 2.0
Solubility buffer system F) 50 mM TRIS buffer, 30 mM m-cresol, 85 mM sodium chloride, 8 μM polysorbate 20 pH 7.3
Peptide samples were prepared in the respective solubility buffer system and solubility was assessed as described in Methods.

[4] = target: T1, glucagon receptor (hGCGR) (Homo sapiens, UniProt P47871); assay: cAMP response (HTRF) in PSC-HEK-293 cells expressing human glucagon receptor; assay type: cell-based
T1 construct: expressed in transfected cells
Protocol: as §1, §2, §3, §4, §5

T1 sequence (P47871 26-477): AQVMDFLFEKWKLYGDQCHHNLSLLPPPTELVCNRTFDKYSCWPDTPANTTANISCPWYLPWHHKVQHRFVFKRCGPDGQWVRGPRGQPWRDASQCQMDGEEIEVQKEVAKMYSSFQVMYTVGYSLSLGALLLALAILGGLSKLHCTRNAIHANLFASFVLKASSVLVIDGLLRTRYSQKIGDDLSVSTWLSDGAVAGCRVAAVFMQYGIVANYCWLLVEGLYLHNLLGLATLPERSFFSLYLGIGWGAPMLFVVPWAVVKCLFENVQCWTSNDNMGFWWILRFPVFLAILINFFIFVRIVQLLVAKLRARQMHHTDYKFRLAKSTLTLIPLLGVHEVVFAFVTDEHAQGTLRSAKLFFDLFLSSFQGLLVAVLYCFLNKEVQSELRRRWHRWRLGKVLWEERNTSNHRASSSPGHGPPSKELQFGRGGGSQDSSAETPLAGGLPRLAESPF
Sequence of human GLP-1 receptor (hGLP-1R) (P43220 24-463): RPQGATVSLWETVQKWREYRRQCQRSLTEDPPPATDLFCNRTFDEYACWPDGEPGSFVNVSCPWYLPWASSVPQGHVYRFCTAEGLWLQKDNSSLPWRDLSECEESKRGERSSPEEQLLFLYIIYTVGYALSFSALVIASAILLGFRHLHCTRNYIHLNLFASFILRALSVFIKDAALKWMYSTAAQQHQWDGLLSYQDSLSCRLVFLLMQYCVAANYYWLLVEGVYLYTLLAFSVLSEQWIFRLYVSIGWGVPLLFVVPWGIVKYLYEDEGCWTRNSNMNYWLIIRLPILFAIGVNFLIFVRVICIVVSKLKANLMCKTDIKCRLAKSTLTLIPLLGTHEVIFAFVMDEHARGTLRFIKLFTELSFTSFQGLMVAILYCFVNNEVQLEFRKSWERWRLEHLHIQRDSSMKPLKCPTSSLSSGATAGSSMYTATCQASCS

CC[C@H](C)[C@H](NC(=O)[C@H](CO)NC(=O)[C@H](CC(C)C)NC(=O)[C@H](CC(=O)O)NC(=O)[C@H](CO)NC(=O)[C@@H](NC(=O)[C@H](Cc1ccccc1)NC(=O)[C@@H](NC(=O)CNC(=O)[C@H](CCC(=O)O)NC(=O)C(C)(C)NC(=O)[C@@H](N)Cc1ccc(O)cc1)[C@@H](C)O)[C@@H](C)CC)C(=O)N[C@@H](C)C(=O)N[C@@H](CC(C)C)C(=O)N[C@@H](CC(=O)O)C(=O)N[C@@H](CCCNC(=N)N)C(=O)N[C@H](C(=O)N[C@@H](Cc1c[nH]cn1)C(=O)N[C@@H](CCC(N)=O)C(=O)N[C@@H](CCC(=O)O)C(=O)N[C@@H](CCC(=O)O)C(=O)N[C@@H](Cc1ccccc1)C(=O)N[C@H](C(=O)N[C@@H](CCC(=O)O)C(=O)N[C@@H](Cc1c[nH]c2ccccc12)C(=O)N[C@@H](CC(C)C)C(=O)N[C@@H](CC(C)C)C(=O)N[C@@H](C)C(=O)NCC(=O)NCC(=O)N[C@@H](CCCCNC(=O)CN1CCN(CC(=O)O)CCN(CC(=O)O)CCN(CC(=O)O)CC1)C(N)=O)[C@@H](C)CC)[C@@H](C)CC [SEQ ID NO: 3, Y-Aib-EGTFISDLSIALDRIHQEEFIEWLLAGGK(DOTA)-NH2] (H-Y[Aib]EGTFISDLSIALDRIHQEEFIEWLLAGGK(DOTA)-NH2; N-terminus assumed)
% Purity after 7 days ([1]; 4° C.): >97%
% Purity after 7 days ([1]; 40° C.): >97%
EC50 [2]: > 10 nM
solubility ([3]; 10 mM glycine buffer, pH 2): ≥ 500 µg/mL
solubility ([3]; 10 mM glycine buffer, pH 2.5): ≥ 500 µg/mL
solubility ([3]; 100 mM histidine buffer, pH 5.5): ≥ 500 µg/mL
solubility ([3]; 100 mM phosphate buffer, pH 7.4): ≥ 500 µg/mL
solubility ([3]; acetate buffer, pH 4.5): < 500 µg/mL
solubility ([3]; pH 7.3): ≥ 500 µg/mL
EC50 [4]: > 10 nM
